Results reported in patent publication US8877161B2 (priority 2011, dated 2014).
pIC50: −log10 of the molar value. Like-named read-outs stand apart in the source and are kept apart here. Marks after values point to notes of the source that are not given here. Where a SMILES comes first, the peptide text is derived from it.

Columns and labels:
Assay type in all cases: binding
AbGM4 (GM4/AbGM4) = conditions: lot # GMR6; for Inhibition percent at IC50AbGM1-1: GM4/AbGM4: peptide at its IC50 AbGM1-1
[1] = biological target: cholera toxin B subunit (CTB); ligand LOSGM1 (Vibrio cholerae serotype O1, UniProt P01556)
Sequence of cholera toxin B subunit (CTB); ligand LOSGM1 (P01556 22-124 limits assumed): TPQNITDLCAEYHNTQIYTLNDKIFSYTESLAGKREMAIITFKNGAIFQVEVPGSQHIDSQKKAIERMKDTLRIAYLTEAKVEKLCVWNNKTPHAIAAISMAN

[2] = biological target: cholera toxin B subunit (CTB); ligand GD1b (Vibrio cholerae serotype O1, UniProt P01556)
Sequence of cholera toxin B subunit (CTB); ligand GD1b (P01556 22-124 limits assumed): as above

[3] = biological target: cholera toxin B subunit (CTB); ligand GM1 (Vibrio cholerae serotype O1, UniProt P01556)
Sequence of cholera toxin B subunit (CTB); ligand GM1 (P01556 22-124 limits assumed): as above

[4] = system: rabbit anti-GM1 antibodies (AbGM1); conditions: for pIC50: AbGM1-1 lot # 431A; for Inhibition percent at IC50AbGM1-1: GM1/AbGM1-1 / Inhibition percent at IC50 AbGM1-1: AbGM1-3 / Inhibition percent at IC50 AbGM1-1: AbeGM1-4 / Inhibition percent at IC50 AbGM1-1: AbGM1-5 / Inhibition percent at IC50 AbGM1-1: AbGM1-1 / Inhibition percent at IC50 AbGM1-1: AbGM1-2: peptide at its IC50 AbGM1-1; for Inhibition percent at IC50 AbGM1-1: AbGM1-3: antibody lot # 101J; for Inhibition percent at IC50 AbGM1-1: AbeGM1-4: antibody lot # 104H; for Inhibition percent at IC50 AbGM1-1: AbGM1-1: antibody lot # 431A, means of 4 values
AbSGPG (SGPG/AbSGPG) = conditions: lot # D710-5; for Inhibition percent at IC50AbGM1-1: SGPG/AbSGPG: peptide at its IC50 AbGM1-1
AbGD1b (GD1b/AbGD1b) = conditions: lot # D710-6; for Inhibition percent at IC50AbGM1-1: GD1b/AbGD1b: peptide at its IC50 AbGM1-1
AbGD1a (GD1a/AbGD1a) = conditions: lot # 109H; for Inhibition percent at IC50AbGM1-1: GD1a/AbGD1a: peptide at its IC50 AbGM1-1
AbGM2 (GM2/AbGM2) = conditions: lot # D710-2; for Inhibition percent at IC50AbGM1-1: GM2/AbGM2: peptide at its IC50 AbGM1-1
[5] = biological target: cholera toxin B subunit (CTB); ligand fucosyl-GM1 (F-GM1) (Vibrio cholerae serotype O1, UniProt P01556)
Sequence of cholera toxin B subunit (CTB); ligand fucosyl-GM1 (F-GM1) (P01556 22-124 limits assumed): as above

AbF-GM1 (F-GM1/AbF-GM1) = conditions: lot # G351; for Inhibition percent at IC50AbGM1-1: F-GM1/AbF-GM1: peptide at its IC50 AbGM1-1
AbGD3 (GD3/AbGD3) = conditions: peptide at its IC50 AbGM1-1; lot # R24
[6] = biological target: cholera toxin B subunit (CTB); ligand Lipid AP (Vibrio cholerae serotype O1, UniProt P01556)
Sequence of cholera toxin B subunit (CTB); ligand Lipid AP (P01556 22-124 limits assumed): as above

[7] = antibody lot # 105T, dilution 1:500
[8] = antibody lot # 431B, dilution 1:500
[9] = treatment with 500 pmol/mL of PGM1-2

| Compound | Inhibition percent at IC50AbGM1-1: GM4/AbGM4 (AbGM4 (GM4/AbGM4)) [%] | Inhibition percent at IC50 GM1: LOSGM1 [1] [%] | Inhibition percent at IC50 GM1: GD1b [2] [%] | IC50 GM1 [3] [µM] | pIC50 ([4]; Table 4, dilution 1:500) | pIC50 ([4]; Table 5) | Inhibition percent at IC50AbGM1-1: GM1/AbGM1-1 ([4]; Table 5, lot # 431A) | Inhibition percent at IC50 AbGM1-1: AbGM1-3 ([4]; dilution 1:500) | Inhibition percent at IC50 AbGM1-1: AbeGM1-4 ([4]; dilution 1:500) | Inhibition percent at IC50 AbGM1-1: AbGM1-5 [4, 7] [%] | Inhibition percent at IC50 AbGM1-1: AbGM1-1 ([4]; dilution 1:500) | Inhibition percent at IC50 AbGM1-1: AbGM1-2 [4, 8] [%] | Inhibition percent at IC50AbGM1-1: SGPG/AbSGPG (AbSGPG (SGPG/AbSGPG)) [%] | Inhibition percent at IC50AbGM1-1: GD1b/AbGD1b (AbGD1b (GD1b/AbGD1b)) [%] | Inhibition percent at IC50AbGM1-1: GD1a/AbGD1a (AbGD1a (GD1a/AbGD1a)) [%] | Inhibition percent at IC50AbGM1-1: GM2/AbGM2 (AbGM2 (GM2/AbGM2)) [%] | Inhibition percent at IC50 GM1: F-GM1 [5] [%] | Inhibition percent at IC50AbGM1-1: F-GM1/AbF-GM1 (AbF-GM1 (F-GM1/AbF-GM1)) [%] | Inhibition percent at IC50AbGM1-1: GD3/AbGD3 (AbGD3 (GD3/AbGD3)) [%] | Inhibition percent at IC50 GM1: Lipid AP [6] [%] | further results |
| --- | --- | --- | --- | --- | --- | --- | --- | --- | --- | --- | --- | --- | --- | --- | --- | --- | --- | --- | --- | --- | --- |
| CC(C)C[C@H](NC(=O)[C@H](CC(N)=O)NC(=O)[C@@H]1CCCN1C(=O)[C@H](Cc1ccccc1)NC(=O)[C@H](Cc1c[nH]c2ccccc12)NC(=O)[C@@H](NC(=O)[C@H](CCCCN)NC(=O)[C@H](Cc1c[nH]c2ccccc12)NC(=O)[C@H](CO)NC(=O)[C@@H](N)C(C)C)[C@@H](C)O)C(=O)N[C@@H](C)C(=O)N[C@H](C(=O)O)C(C)C [PGM1-1, VSWKTWFPNLAV] (H-VSWKTWFPNLAV-OH; N-terminus and C-terminus assumed) | 0 | 50.8 | 39.9 | 0.038 | 6.56 | 6.56 | 50^b percent | 0% | 72.1% | 44.6 | 50^a percent | 27.1 | 0 | 32.1 | 0 | 11.2 | 45.8 | 42.1 | 0 | 0 |  |
| CC[C@H](C)[C@H](NC(=O)[C@@H](N)CCC(N)=O)C(=O)N[C@@H](CC(N)=O)C(=O)N[C@H](C(=O)N[C@@H](C)C(=O)N[C@@H](CCCCN)C(=O)N[C@@H](Cc1c[nH]c2ccccc12)C(=O)N[C@@H](Cc1c[nH]c2ccccc12)C(=O)N[C@@H](CCCCN)C(=O)N[C@H](C(=O)N[C@@H](Cc1c[nH]cn1)C(=O)N[C@@H](Cc1ccccc1)C(=O)O)[C@@H](C)O)[C@@H](C)O [PGM1-5, QINTAKWWKTHF] (H-QINTAKWWKTHF-OH) | 0 | 50.0 | 39.8 | 0.0344 | 6.32 | 6.32 | 50% | 12.1% | 0% | 32.9 | 50% | 0 | 0 | 0 | 0 | 6.5 | 52.1 | 0 | 0 | 0 | Inhibition percent at IC50 GM1: GM1 [3]: 50% |
| CC[C@H](C)[C@H](N)C(=O)N1CCC[C@H]1C(=O)N[C@@H](CCC(N)=O)C(=O)N[C@H](C(=O)N[C@@H](Cc1c[nH]c2ccccc12)C(=O)N[C@@H](CCCNC(=N)N)C(=O)N[C@@H](CC(=O)O)C(=O)N[C@@H](Cc1c[nH]c2ccccc12)C(=O)N[C@@H](Cc1ccccc1)C(=O)N[C@@H](CCCCN)C(=O)N[C@@H](CC(C)C)C(=O)N1CCC[C@H]1C(=O)O)C(C)C [PGM1-3, IPQVWRDWFKLP] (H-IPQVWRDWFKLP-OH) | 0 | 52.1 | 37.9 | 0.0096 | 7.12 | 7.12 | 50% | 42.5% | 30.3% | 59.1 | 50% | 62.1 | 0 | 0 | 0 | 0 | 43.9 | 0 | 0 | 0 | Inhibition percent at IC50 GM1: GM1 [3]: 50% |
| CSCC[C@H](NC(=O)[C@H](CO)NC(=O)[C@@H]1CCCN1C(=O)[C@H](Cc1ccccc1)NC(=O)[C@H](Cc1c[nH]c2ccccc12)NC(=O)[C@H](CCCCN)NC(=O)[C@H](Cc1c[nH]cn1)NC(=O)[C@H](Cc1ccccc1)NC(=O)[C@@H]1CCCN1C(=O)[C@H](CO)NC(=O)[C@@H](N)Cc1ccc(O)cc1)C(=O)N[C@@H](Cc1c[nH]cn1)C(=O)O [PGM1-2, YSPFHKWFPSMH] (H-YSPFHKWFPSMH-OH; N-terminus and C-terminus assumed) |  | 47.9 | 21.9 | 0.0461 |  |  |  | 65.7^a percent | 15.1^a percent |  | 0^a percent |  |  |  |  |  | 52.1 |  |  | 0 | Inhibition percent: GM4/AbGM4 (AbGM4 (GM4/AbGM4); [9]): 0^b percent; Inhibition percent at IC50 GM1: GM1 [3]: 50%; Inhibition percent: GM1/AbGM1-1 ([4]; Table 5, treatment with 500 pmol/mL of PGM1-2, lot # 431A): 0^b percent; Inhibition percent: AbGM1-5 ([4]; treatment with 500 pmol/mL of PGM1-2, antibody lot # 105T, dilution 1:500): 0^b percent; Inhibition percent: AbGM1-2 ([4]; treatment with 500 pmol/mL of PGM1-2, antibody lot # 431B, dilution 1:500): 32.1^b percent; Inhibition percent: SGPG/AbSGPG (AbSGPG (SGPG/AbSGPG); [9]): 0^b percent; Inhibition percent: GD1b/AbGD1b (AbGD1b (GD1b/AbGD1b); [9]): 23.6^b percent; Inhibition percent: GD1a/AbGD1a (AbGD1a (GD1a/AbGD1a); [9]): 0^b percent; Inhibition percent: GM2/AbGM2 (AbGM2 (GM2/AbGM2); [9]): 0^b percent; Inhibition percent: F-GM1/AbF-GM1 (AbF-GM1 (F-GM1/AbF-GM1); [9]): 0^b percent |
| DASKALRSSGMP [PGM1-6] | 0 |  |  |  | 6.53 | 6.53 | 50% | 0% | 55.1% | 18.7 | 50% | 45.1 | 0 | 8.9 | 0 | 0 |  | 23.4 | 0 |  | Inhibition percent: LOSGM1 [1]: 0^d percent; Inhibition percent: GD1b [2]: 0^d percent; Inhibition percent at IC50 GM1: GM1 [3]: 0%; Inhibition percent: F-GM1 [5]: 0^d percent; Inhibition percent: Lipid AP [6]: 0^d percent |
| CC(C)C[C@H](NC(=O)[C@H](CCCCN)NC(=O)[C@@H](NC(=O)[C@H](Cc1ccccc1)NC(=O)[C@H](Cc1c[nH]c2ccccc12)NC(=O)[C@H](C)NC(=O)[C@@H]1CCCN1C(=O)[C@@H](N)Cc1ccccc1)[C@@H](C)O)C(=O)N[C@@H](Cc1ccc(O)cc1)C(=O)N1CCC[C@H]1C(=O)N[C@@H](CCCNC(=N)N)C(=O)N[C@H](C(=O)O)[C@@H](C)O [PGM1-4, FPAWFTKLYPRT] (H-FPAWFTKLYPRT-OH) | 0 | 51.1 | 18.9 | 0.0774 | 6.76 | 6.76 | 50% | 12.6% | 33.9% | 0 | 50% | 70.1 | 0 | 12.1 | 0 | 0 | 62.1 | 25.7 | 0 | 0 | Inhibition percent at IC50 GM1: GM1 [3]: 50% |
